Data as given in EPA's CvTdb concentration-time database.

Experiments:
Rat [1] = assay: concentration in brain after dosing; settings: 24 h; dosed: Perfluorohexane-1-sulphonic acid – potassium salt; 16 mg/kg; oral; Female; F344
Rat [2] = assay: concentration in liver after dosing; settings: 12 h; dosed: Perfluorohexane-1-sulphonic acid – potassium salt; 16 mg/kg; oral; Female; Harlan Sprague Dawley
Rat [3] = assay: concentration in plasma after dosing; settings: 0.25 h; dosed: Pyridine; 10 mg/kg; iv; Male; F344
rat [4] = assay: concentration in expired air after dosing; negative times count back from the end of exposure; settings: dosed: 1,1-dichloroethylene, inhalation, duration: 3 hr, male, Sprague-Dawley

## O=S(=O)([O-])C(F)(F)C(F)(F)C(F)(F)C(F)(F)C(F)(F)C(F)(F)F.[K+] [Perfluorohexane-1-sulphonic acid – potassium salt]
Rat [1]
  concentration in brain: 1760 ng/g
Rat [2]
  concentration in liver: 39800 ng/g

## c1ccncc1 [Pyridine]
Rat [3]
  concentration in plasma: 4510 ng/mL

## C=C(Cl)Cl [1,1-dichloroethylene]
Rat [4]; 9 s, 150 ppm
  concentration in expired air: 121 ppm
Rat [4]; 88 s, 75 ppm
  concentration in expired air: 12.1 ppm
Rat [4]; 205 s, 75 ppm
  concentration in expired air: 6.41 ppm
Rat [4]; 0.1527 h, 150 ppm
  concentration in expired air: 5.19 ppm
Rat [4]; 0.2485 h, 150 ppm
  concentration in expired air: 3.34 ppm
Rat [4]; 0.2565 h, 25 ppm
  concentration in expired air: 3.35 ppm
Rat [4]; 0.3921 h, 25 ppm
  concentration in expired air: 3.42 ppm
Rat [4]; 0.3921 h, 150 ppm
  concentration in expired air: 3.42 ppm
Rat [4]; 0.4997 h, 150 ppm
  concentration in expired air: 3.48 ppm
Rat [4]; 0.5037 h, 25 ppm
  concentration in expired air: 3.48 ppm
Rat [4]; -1 s, 25 ppm, during exposure
  concentration in expired air: 22.2 ppm
Rat [4]; -15 s, 75 ppm, during exposure
  concentration in expired air: 63.3 ppm
Rat [4]; -0.1331 h, 150 ppm, during exposure
  concentration in expired air: 121 ppm
Rat [4]; -0.1358 h, 75 ppm, during exposure
  concentration in expired air: 63.9 ppm
Rat [4]; -0.1359 h, 25 ppm, during exposure
  concentration in expired air: 22.4 ppm
Rat [4]; -0.2555 h, 25 ppm, during exposure
  concentration in expired air: 22.1 ppm
Rat [4]; -0.2633 h, 75 ppm, during exposure
  concentration in expired air: 63.2 ppm
Rat [4]; -0.2646 h, 150 ppm, during exposure
  concentration in expired air: 120 ppm
Rat [4]; -0.3961 h, 150 ppm, during exposure
  concentration in expired air: 119 ppm
Rat [4]; -0.3988 h, 75 ppm, during exposure
  concentration in expired air: 63.1 ppm
Rat [4]; -0.399 h, 25 ppm, during exposure
  concentration in expired air: 22.6 ppm
Rat [4]; -0.5345 h, 25 ppm, during exposure
  concentration in expired air: 22.2 ppm
Rat [4]; -0.5384 h, 75 ppm, during exposure
  concentration in expired air: 63.7 ppm
Rat [4]; -0.5396 h, 150 ppm, during exposure
  concentration in expired air: 120 ppm
Rat [4]; -0.6461 h, 25 ppm, during exposure
  concentration in expired air: 21.2 ppm
Rat [4]; -0.6578 h, 75 ppm, during exposure
  concentration in expired air: 62 ppm
Rat [4]; -0.6591 h, 150 ppm, during exposure
  concentration in expired air: 118 ppm
Rat [4]; -0.7936 h, 25 ppm, during exposure
  concentration in expired air: 22.1 ppm
Rat [4]; -0.7986 h, 150 ppm, during exposure
  concentration in expired air: 119 ppm
Rat [4]; -0.8014 h, 75 ppm, during exposure
  concentration in expired air: 62.6 ppm
Rat [4]; -0.9261 h, 150 ppm, during exposure
  concentration in expired air: 117 ppm
Rat [4]; -0.9328 h, 75 ppm, during exposure
  concentration in expired air: 61.6 ppm
Rat [4]; -0.9371 h, 25 ppm, during exposure
  concentration in expired air: 21.7 ppm
Rat [4]; -1.08 h, 75 ppm, during exposure
  concentration in expired air: 61.2 ppm
Rat [4]; -1.085 h, 25 ppm, during exposure
  concentration in expired air: 21.9 ppm
Rat [4]; -1.085 h, 150 ppm, during exposure
  concentration in expired air: 117 ppm
Rat [4]; -1.204 h, 25 ppm, during exposure
  concentration in expired air: 21.5 ppm
Rat [4]; -1.208 h, 75 ppm, during exposure
  concentration in expired air: 60.8 ppm
Rat [4]; -1.209 h, 150 ppm, during exposure
  concentration in expired air: 115 ppm
Rat [4]; -1.343 h, 75 ppm, during exposure
  concentration in expired air: 60.7 ppm
Rat [4]; -1.344 h, 25 ppm, during exposure
  concentration in expired air: 21.5 ppm
Rat [4]; -1.344 h, 150 ppm, during exposure
  concentration in expired air: 114 ppm
Rat [4]; -1.479 h, 75 ppm, during exposure
  concentration in expired air: 61.3 ppm
Rat [4]; -1.483 h, 25 ppm, during exposure
  concentration in expired air: 21.4 ppm
Rat [4]; -1.484 h, 150 ppm, during exposure
  concentration in expired air: 114 ppm
Rat [4]; -1.595 h, 25 ppm, during exposure
  concentration in expired air: 21.3 ppm
Rat [4]; -1.595 h, 150 ppm, during exposure
  concentration in expired air: 113 ppm
Rat [4]; -1.598 h, 75 ppm, during exposure
  concentration in expired air: 60.6 ppm
Rat [4]; -1.73 h, 25 ppm, during exposure
  concentration in expired air: 20.9 ppm
Rat [4]; -1.735 h, 150 ppm, during exposure
  concentration in expired air: 112 ppm
Rat [4]; -1.738 h, 75 ppm, during exposure
  concentration in expired air: 60.5 ppm
Rat [4]; -1.854 h, 25 ppm, during exposure
  concentration in expired air: 20.6 ppm
Rat [4]; -1.857 h, 75 ppm, during exposure
  concentration in expired air: 59.8 ppm
Rat [4]; -1.858 h, 150 ppm, during exposure
  concentration in expired air: 111 ppm
Rat [4]; -1.993 h, 25 ppm, during exposure
  concentration in expired air: 20.5 ppm
Rat [4]; -1.997 h, 75 ppm, during exposure
  concentration in expired air: 60.7 ppm
Rat [4]; -1.998 h, 150 ppm, during exposure
  concentration in expired air: 111 ppm
Rat [4]; -2.058 h, 150 ppm, during exposure
  concentration in expired air: 111 ppm
Rat [4]; -2.061 h, 25 ppm, during exposure
  concentration in expired air: 20.1 ppm
Rat [4]; -2.061 h, 75 ppm, during exposure
  concentration in expired air: 61 ppm
Rat [4]; -2.125 h, 25 ppm, during exposure
  concentration in expired air: 17.6 ppm
Rat [4]; -2.129 h, 75 ppm, during exposure
  concentration in expired air: 60.6 ppm
Rat [4]; -2.137 h, 150 ppm, during exposure
  concentration in expired air: 110 ppm
Rat [4]; -2.189 h, 25 ppm, during exposure
  concentration in expired air: 19.7 ppm
Rat [4]; -2.196 h, 75 ppm, during exposure
  concentration in expired air: 57.4 ppm
Rat [4]; -2.197 h, 150 ppm, during exposure
  concentration in expired air: 112 ppm
Rat [4]; -2.256 h, 25 ppm, during exposure
  concentration in expired air: 19.7 ppm
Rat [4]; -2.257 h, 150 ppm, during exposure
  concentration in expired air: 110 ppm
Rat [4]; -2.26 h, 75 ppm, during exposure
  concentration in expired air: 59.3 ppm
Rat [4]; -2.336 h, 25 ppm, during exposure
  concentration in expired air: 20.6 ppm
Rat [4]; -2.336 h, 75 ppm, during exposure
  concentration in expired air: 59.9 ppm
Rat [4]; -2.336 h, 150 ppm, during exposure
  concentration in expired air: 108 ppm
Rat [4]; -2.396 h, 150 ppm, during exposure
  concentration in expired air: 109 ppm
Rat [4]; -2.4 h, 25 ppm, during exposure
  concentration in expired air: 19.6 ppm
Rat [4]; -2.408 h, 75 ppm, during exposure
  concentration in expired air: 58.9 ppm
Rat [4]; -2.456 h, 150 ppm, during exposure
  concentration in expired air: 107 ppm
Rat [4]; -2.46 h, 25 ppm, during exposure
  concentration in expired air: 19.6 ppm
Rat [4]; -2.475 h, 75 ppm, during exposure
  concentration in expired air: 58.8 ppm
Rat [4]; -2.531 h, 150 ppm, during exposure
  concentration in expired air: 104 ppm
Rat [4]; -2.535 h, 25 ppm, during exposure
  concentration in expired air: 18.9 ppm
Rat [4]; -2.539 h, 75 ppm, during exposure
  concentration in expired air: 57.5 ppm
Rat [4]; -2.591 h, 25 ppm, during exposure
  concentration in expired air: 17.9 ppm
Rat [4]; -2.595 h, 150 ppm, during exposure
  concentration in expired air: 97.7 ppm
Rat [4]; -2.599 h, 75 ppm, during exposure
  concentration in expired air: 56.2 ppm
Rat [4]; -2.651 h, 25 ppm, during exposure
  concentration in expired air: 16.6 ppm
Rat [4]; -2.654 h, 150 ppm, during exposure
  concentration in expired air: 93.5 ppm
Rat [4]; -2.658 h, 75 ppm, during exposure
  concentration in expired air: 54.9 ppm
Rat [4]; -2.726 h, 25 ppm, during exposure
  concentration in expired air: 15 ppm
Rat [4]; -2.73 h, 75 ppm, during exposure
  concentration in expired air: 54.3 ppm
Rat [4]; -2.733 h, 150 ppm, during exposure
  concentration in expired air: 88.4 ppm
Rat [4]; -2.792 h, 150 ppm, during exposure
  concentration in expired air: 82.7 ppm
Rat [4]; -2.794 h, 25 ppm, during exposure
  concentration in expired air: 14.7 ppm
Rat [4]; -2.798 h, 75 ppm, during exposure
  concentration in expired air: 52.3 ppm
Rat [4]; -2.856 h, 150 ppm, during exposure
  concentration in expired air: 76.7 ppm
Rat [4]; -2.858 h, 25 ppm, during exposure
  concentration in expired air: 12.4 ppm
Rat [4]; -2.861 h, 75 ppm, during exposure
  concentration in expired air: 48.8 ppm
Rat [4]; -2.925 h, 25 ppm, during exposure
  concentration in expired air: 13.3 ppm
Rat [4]; -2.926 h, 300 ppm, during exposure
  concentration in expired air: 190 ppm
Rat [4]; -2.927 h, 150 ppm, during exposure
  concentration in expired air: 71.9 ppm
Rat [4]; -2.933 h, 75 ppm, during exposure
  concentration in expired air: 46.2 ppm
